Experimental data from paper PMC6009892, “A novel series of pyrazole-platinum(II) complexes as potential anti-cancer agents that induce cell cycle arrest and apoptosis in breast cancer cells” (Journal of Enzyme Inhibition and Medicinal Chemistry, 2018).
Read-outs that look alike come from different tables or passages of the source.

Assays:
Assay type in all cases: cell-based, human
[1] = test system: caspase-8 in MCF-7 breast cancer cells; experiment: FLICA caspase-8 activity, flow cytometry, MCF-7; details: MCF-7, 20 μM, 24 h
Method: (§1) Caspase-8 activity was measured using the FLICA Caspase 8 Assay Kit (ImmunoChemistry Technologies, Bloomington, MN, USA), according to the manufacturer’s instructions. Briefly, cultured MCF-7 and MDA-MB-231 breast cancer cells (1 × 10^6) were washed with cold PBS twice and re-suspended in buffer. We added 5 µl of diluted FLICA reagent and 2 µl of Hoechst 33342 to 93 µl of cell suspension and mixed by pipetting. The cells were incubated for 60 min at 37°C. After incubation, the cells were washed twice in 400 µl of apoptosis wash buffer and centrifuged at 300 × g. After the last wash, we re-suspended the cells in 100 µl of apoptosis wash buffer supplemented with 10 µg/ml PI. Analysis was performed using the BD FACSCanto II flow cytometer, and the results were analysed with FACSDiva software (both from BD Biosciences Systems, San Jose, CA).

[2] = test system: MCF-7 breast cancer cells; experiment: MTT cell viability assay, MCF-7
Method: (§2) MCF-7, MDA-MB-231 (both human breast cancer cell lines), and fibroblast cells were obtained from American Type Culture Collection (ATCC, Manassas, VA, USA). DMEM and FBS used in a cell culture were from Gibco (USA). Glutamine, penicillin, and streptomycin were obtained from Quality Biologicals Inc. (USA). DMEM media was blended with 50 units/ml of penicillin, 50 μg/ml of streptomycin, 10% of FBS. All cell lines were cultured in 5% CO2 and fully humidified at 37 °C. Cells were cultured in Costar flasks and sub-confluent cells were detached with 0.05% trypsin and 0.02% ethylenediaminetetraacetic acid in calcium-free phosphate-buffered saline (PBS), counted in hemocytometers, and plated at 5 × 10^5 cells/well of six-well plates (Thermo Scientific, New York, NY, USA) in 2 ml of growth medium (DMEM without phenol red with 10% CPSR1). Cells reached about 80% of confluency at day 2, and in most cases such cells were used for the assays.
(§3) The viability of cultured cells was decided through assaying the reduction of MTT to formazan. In brief, MCF-7, MDA-MB-231, and fibroblast cells line were seeded at an initial density of 1 × 10^5 cells per well. Then, the cells were incubated at 37 °C for 24 h. Subsequently, cultured cells were treated with a medium containing concentrations (5, 10, 20, 30, 40, and 50 μM) of PtPz1–PtPz6 for 24 h and 48 h. After the incubation period, MTT was added into all wells in the final concentration of 0.5 mg/ml. After that, the cells were incubated at 37 °C for 4 h. Then, by removing the medium, 200 μl of DMSO was added to all wells. As a result, insoluble formazan was dissolved in DMSO (0.5%). At 570 nm (630 nm as a reference), the absorbance was measured in an Evolution 201 reader (Thermo Scientific, Waltham, MA).

[3] = test system: caspase-8 in MDA-MB-231 breast cancer cells; experiment: FLICA caspase-8 activity, flow cytometry, MDA-MB-231; details: MDA-MB-231, 20 μM, 24 h
Method: as §1

[4] = test system: MDA-MB-231 breast cancer cells; experiment: DNA fragmentation TUNEL assay, MDA-MB-231; details: MDA-MB-231, 20 μM, 24 h
Method: (§4) DNA fragmentation associated with apoptosis was examined by the terminal deoxynucleotidyltransferase (TdT)- mediated dUTP nick end labeling (TUNEL) method using a commercial assay kit (APO-Direct Kit; BD Pharmingen, San Diego, CA). After treatment, the cells were fixed with 1% paraformaldehyde in PBS (4°C, 30 min), washed in PBS, and permeabilised with ice-cold 70% ethanol. The APO-Direct Kit TUNEL assay was performed as described by the manufacturer. Briefly, the fixed cells were washed twice using the kit wash buffer, and after centrifugation the supernatant was discarded. The DNA labeling solution (containing TdT enzyme and FITC-dUTP) was added to the cell pellet, and the re-suspended mixture was incubated for 1 h at 37°C with occasional shaking. At the end of incubation time, rinse buffer was added, and after centrifugation the supernatant was discarded. We repeated the cell rinsing with rinse buffer, and then suspended the cell pellet in PI/RNase staining buffer. Cells were incubated at room temperature for 30 min and immediately analysed in a BD FACSCanto II flow cytometer. In total, 10,000 events were collected per test sample. The results were analysed with FACSDiva software (both from BD Biosciences Systems, San Jose, CA). The percentage of cells with distinctive apoptotic DNA strand breaks and distinguished by green fluorescent emission was calculated.

[5] = test system: MCF-7 breast cancer cells; experiment: DNA fragmentation TUNEL assay, MCF-7; details: MCF-7, 20 μM, 24 h; control 4.0%
Method: as §4

[6] = test system: caspase-9 in MDA-MB-231 breast cancer cells; experiment: FLICA caspase-9 activity, flow cytometry, MDA-MB-231; details: MDA-MB-231, 20 μM, 24 h
Method: as §1, with “Caspase-9” for “Caspase-8”, “9” for “8”, “re-suspended” for “re-suspended the”

[7] = test system: caspase-9 in MCF-7 breast cancer cells; experiment: FLICA caspase-9 activity, flow cytometry, MCF-7; details: MCF-7, 20 μM, 24 h
Method: as §1, with “Caspase-9” for “Caspase-8”, “9” for “8”, “re-suspended” for “re-suspended the”

fibroblast cells = experiment: MTT cell viability assay, fibroblasts
Method: as §2, §3

[8] = test system: MDA-MB-231 breast cancer cells; experiment: MTT cell viability assay, MDA-MB-231
Method: as §2, §3

[9] = MCF-7, 24 h incubation, 5-50 μM, read-out: IC50 (cell viability, MTT)
[10] = MCF-7, 48 h incubation, 5-50 μM, read-out: IC50 (cell viability, MTT)
[11] = 24 h incubation, 5-50 μM, read-out: IC50 (cell viability, MTT)
[12] = 48 h incubation, 5-50 μM, read-out: IC50 (cell viability, MTT)
[13] = MDA-MB-231, 24 h incubation, 5-50 μM, read-out: IC50 (cell viability, MTT)
[14] = MDA-MB-231, 48 h incubation, 5-50 μM, read-out: IC50 (cell viability, MTT)

Structure (SMILES) | IC50 [2, 9] [µM] | IC50 [2, 10] [µM] | IC50 [8, 13] [µM] | IC50 [8, 14] [µM] | increase in caspase-8 activity compared with the control [1] [fold] | percent of cells with active caspase-8 [1] [%] | increase in caspase-8 activity compared with the control [3] | percent of cells with active caspase-8 [3] [%] | percent of TUNEL positive cells [4] [%] | percent of TUNEL positive cells [5] [%] | percent of cells with active caspase-9 [6] [%] | percent of cells with active caspase-9 [7] [%] | IC50 (fibroblast cells; [11]) [µM] | IC50 (fibroblast cells; [12]) [µM] | IC50 ([2]; read-out: IC50 (additional test for cisplatin), MCF-7, 24 h, additional test in concentrations allowing to determine IC50) [µM] | IC50 ([2]; read-out: IC50 (additional test for cisplatin), MCF-7, 48 h, additional test in concentrations allowing to determine IC50) [µM] | IC50 (fibroblast cells; read-out: IC50 (additional test for cisplatin), 24 h, additional test in concentrations allowing to determine IC50) [µM] | IC50 (fibroblast cells; read-out: IC50 (additional test for cisplatin), 48 h, additional test in concentrations allowing to determine IC50) [µM] | IC50 ([8]; read-out: IC50 (additional test for cisplatin), MDA-MB-231, 24 h, additional test in concentrations allowing to determine IC50) [µM] | IC50 ([8]; read-out: IC50 (additional test for cisplatin), MDA-MB-231, 48 h, additional test in concentrations allowing to determine IC50) [µM]
Cc1cc(C)[n+]([Pt-2]2([n+]3[nH]c(C)cc3C)[N](c3ccc(C(=N)N)cc3)N=[N+](c3ccc(C(=N)N)cc3)[Pt-2]([n+]3[nH]c(C)cc3C)([n+]3[nH]c(C)cc3C)[N](c3ccc(C(=N)N)cc3)N=[N+]2c2ccc(C(=N)N)cc2)[nH]1.Cl.Cl.Cl.Cl.O.O [PtPz2, [Pt2(3,5-dimethylpyrazole)4(berenil)2]·4HCl·2H2O] | 20 ± 2 | 13 ± 2 | 17 ± 2 | 11 ± 1 | ~12 | 56.2 | about 10 fold | 45.8 | 55.8 | 47.5 | 46.5 | 50.5 | 27 ± 2 | 24 ± 2 |  |  |  |  |  | 
Cc1c[nH][n+]([Pt-2]2([n+]3[nH]cc(C)c3C)[N](c3ccc(C(=N)N)cc3)N=[N+](c3ccc(C(=N)N)cc3)[Pt-2]([n+]3[nH]cc(C)c3C)([n+]3[nH]cc(C)c3C)[N](c3ccc(C(=N)N)cc3)N=[N+]2c2ccc(C(=N)N)cc2)c1C.Cl.Cl.Cl.Cl.O.O [PtPz3, [Pt2(3,4-dimethylpyrazole)4(berenil)2]·4HCl·2H2O] | 23 ± 1 | 18 ± 1 | 20 ± 2 | 16 ± 1 |  | 48.3 |  | 38.0 | 50.4 | 46.5 | 41.1 | 43.4 | 32 ± 1 | 28 ± 1 |  |  |  |  |  | 
Cc1ccn[nH]1.Cc1ccn[nH]1.Cc1ccn[nH]1.Cc1ccn[nH]1.Cl.Cl.Cl.Cl.N=C(N)c1ccc(N=N[N]([Pt])c2ccc(C(=N)N)cc2)cc1.N=C(N)c1ccc(N=N[N]([Pt])c2ccc(C(=N)N)cc2)cc1.O.O [PtPz5, [Pt2(5-methylpyrazole)4(berenil)2]·4HCl·2H2O] | 28 ± 2 | 22 ± 2 | 29 ± 1 | 19 ± 2 |  | 46.1 |  | 37.9 | 31.6 | 32.1 | 38.6 | 39.6 | 35 ± 1 | 31 ± 2 |  |  |  |  |  | 
N.N.[Cl][Pt][Cl] [cisplatin, reference compound] | > 50 | > 50 | > 50 | > 50 |  | 7.1 |  | 9.7 | 8.9 | 10.9 | 7.3 | 8.2 |  | > 50 | 93 ± 2 | 78 ± 1 | > 100 | > 100 | 82 ± 2 | 72 ± 1

Further lines, with some results ahead:

IC50 [2, 9] [µM] | IC50 [2, 10] [µM] | IC50 [8, 13] [µM] | IC50 [8, 14] [µM] | Structure (SMILES) | increase in caspase-8 activity compared with the control [1] [fold] | percent of cells with active caspase-8 [1] [%] | increase in caspase-8 activity compared with the control [3] | percent of cells with active caspase-8 [3] [%] | percent of TUNEL positive cells [4] [%] | percent of TUNEL positive cells [5] [%] | percent of cells with active caspase-9 [6] [%] | percent of cells with active caspase-9 [7] [%] | IC50 (fibroblast cells; [11]) [µM] | IC50 (fibroblast cells; [12]) [µM] | IC50 ([2]; read-out: IC50 (additional test for cisplatin), MCF-7, 24 h, additional test in concentrations allowing to determine IC50) [µM] | IC50 ([2]; read-out: IC50 (additional test for cisplatin), MCF-7, 48 h, additional test in concentrations allowing to determine IC50) [µM] | IC50 (fibroblast cells; read-out: IC50 (additional test for cisplatin), 24 h, additional test in concentrations allowing to determine IC50) [µM] | IC50 (fibroblast cells; read-out: IC50 (additional test for cisplatin), 48 h, additional test in concentrations allowing to determine IC50) [µM] | IC50 ([8]; read-out: IC50 (additional test for cisplatin), MDA-MB-231, 24 h, additional test in concentrations allowing to determine IC50) [µM] | IC50 ([8]; read-out: IC50 (additional test for cisplatin), MDA-MB-231, 48 h, additional test in concentrations allowing to determine IC50) [µM]
17 ± 2 | 11 ± 1 | 16 ± 1 | 10 ± 1 | Cc1cc(C)[n+]([Pt-2]2([n+]3c(C)cc(C)n3CO)[N](c3ccc(C(=N)N)cc3)N=[N+](c3ccc(C(=N)N)cc3)[Pt-2]([n+]3c(C)cc(C)n3CO)([n+]3c(C)cc(C)n3CO)[N](c3ccc(C(=N)N)cc3)N=[N+]2c2ccc(C(=N)N)cc2)n1CO.Cl.Cl.Cl.Cl.O.O [PtPz1, [Pt2(N-hydroxymethyl-3,5-dimethylpyrazole)4(berenil)2]·4HCl·2H2O] | ~12 | 56.2 | about 10 fold | 48.9 | 58.3 | 55.7 | 47.9 | 52.8 | 24 ± 3 | 19 ± 2 |  |  |  |  |  | 
> 50 | 48 ± 2 | > 50 | 39 ± 2 | CCn1ccc[n+]1[Pt-2]1([n+]2cccn2CC)[N](c2ccc(C(=N)N)cc2)N=[N+](c2ccc(C(=N)N)cc2)[Pt-2]([n+]2cccn2CC)([n+]2cccn2CC)[N](c2ccc(C(=N)N)cc2)N=[N+]1c1ccc(C(=N)N)cc1.Cl.Cl.Cl.Cl.O.O [PtPz6, [Pt2(N-ethylpyrazole)4(berenil)2]·4HCl·2H2O] |  | 21.0 |  | 21.1 | 13.2 | 14.2 | 24.6 | 24.1 | > 50 | > 50 |  |  |  |  |  | 
